Article PMC3145970, “Specific CLK Inhibitors from a Novel Chemotype for Regulation of Alternative Splicing” (Chemistry & Biology, 2011)
Read-outs that look alike come from different tables or passages of the source.

Assays:
[1] = target: PIM1 (Homo sapiens, UniProt P11309); assay: Thermal stability shift assay; type: binding; settings: read-out: Tm shift PIM1
Description: (§1) Thermal denaturation experiments were carried out in an Mx3005p real-time PCR machine (Agilent) using a protein concentration of 2 μM and an inhibitor concentration of 10 μM. Samples were buffered in 10 mM HEPES (pH 7.5), 500 mM NaCl and a 1:1000 dilution of SyproOrange (Invitrogen).

[2] = target: CK1g3 (Homo sapiens, UniProt Q9Y6M4); assay: Thermal stability shift assay; type: binding; settings: read-out: Tm shift CK1g3
Sequence of CK1g3 (Q9Y6M4 whole entry): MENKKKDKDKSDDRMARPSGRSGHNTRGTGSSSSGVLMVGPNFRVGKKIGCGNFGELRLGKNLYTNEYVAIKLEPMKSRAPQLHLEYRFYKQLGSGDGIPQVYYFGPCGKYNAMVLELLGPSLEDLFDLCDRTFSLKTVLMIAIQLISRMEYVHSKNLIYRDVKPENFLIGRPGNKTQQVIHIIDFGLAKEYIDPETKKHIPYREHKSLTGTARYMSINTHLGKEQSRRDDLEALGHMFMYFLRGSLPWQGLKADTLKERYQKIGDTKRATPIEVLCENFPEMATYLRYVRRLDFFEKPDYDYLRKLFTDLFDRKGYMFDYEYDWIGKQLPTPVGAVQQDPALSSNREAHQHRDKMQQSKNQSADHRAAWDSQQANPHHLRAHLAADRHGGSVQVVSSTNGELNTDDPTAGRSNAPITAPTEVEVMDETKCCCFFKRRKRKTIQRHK
Description: as §1

[3] = target: T1, Erk1 (Homo sapiens, UniProt P27361); assay: Thermal stability shift assay; type: binding; settings: read-out: Tm shift Erk1
T1 construct: purchased in-house (SGC Oxford thermal shift panel)
T1 sequence (P27361 whole entry): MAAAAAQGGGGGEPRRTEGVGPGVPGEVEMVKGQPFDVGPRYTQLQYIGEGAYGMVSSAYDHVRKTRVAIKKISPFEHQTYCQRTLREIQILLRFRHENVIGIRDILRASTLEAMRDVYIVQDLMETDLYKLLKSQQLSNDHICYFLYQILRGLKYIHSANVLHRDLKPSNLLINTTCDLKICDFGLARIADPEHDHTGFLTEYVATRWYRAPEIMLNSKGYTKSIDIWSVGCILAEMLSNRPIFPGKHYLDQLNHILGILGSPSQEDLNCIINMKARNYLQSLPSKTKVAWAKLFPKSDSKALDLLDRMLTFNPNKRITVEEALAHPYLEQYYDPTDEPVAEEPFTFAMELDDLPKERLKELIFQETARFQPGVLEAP
Description: as §1

[4] = target: CDK2 (Homo sapiens, UniProt P24941); assay: Thermal stability shift assay; type: binding; settings: read-out: Tm shift CDK2
Description: as §1

[5] = target: T2, JAK1 (Homo sapiens, UniProt P23458); assay: Thermal stability shift assay; type: binding; settings: read-out: Tm shift JAK1
T2 construct: purchased in-house (SGC Oxford thermal shift panel)
T2 sequence (P23458 whole entry): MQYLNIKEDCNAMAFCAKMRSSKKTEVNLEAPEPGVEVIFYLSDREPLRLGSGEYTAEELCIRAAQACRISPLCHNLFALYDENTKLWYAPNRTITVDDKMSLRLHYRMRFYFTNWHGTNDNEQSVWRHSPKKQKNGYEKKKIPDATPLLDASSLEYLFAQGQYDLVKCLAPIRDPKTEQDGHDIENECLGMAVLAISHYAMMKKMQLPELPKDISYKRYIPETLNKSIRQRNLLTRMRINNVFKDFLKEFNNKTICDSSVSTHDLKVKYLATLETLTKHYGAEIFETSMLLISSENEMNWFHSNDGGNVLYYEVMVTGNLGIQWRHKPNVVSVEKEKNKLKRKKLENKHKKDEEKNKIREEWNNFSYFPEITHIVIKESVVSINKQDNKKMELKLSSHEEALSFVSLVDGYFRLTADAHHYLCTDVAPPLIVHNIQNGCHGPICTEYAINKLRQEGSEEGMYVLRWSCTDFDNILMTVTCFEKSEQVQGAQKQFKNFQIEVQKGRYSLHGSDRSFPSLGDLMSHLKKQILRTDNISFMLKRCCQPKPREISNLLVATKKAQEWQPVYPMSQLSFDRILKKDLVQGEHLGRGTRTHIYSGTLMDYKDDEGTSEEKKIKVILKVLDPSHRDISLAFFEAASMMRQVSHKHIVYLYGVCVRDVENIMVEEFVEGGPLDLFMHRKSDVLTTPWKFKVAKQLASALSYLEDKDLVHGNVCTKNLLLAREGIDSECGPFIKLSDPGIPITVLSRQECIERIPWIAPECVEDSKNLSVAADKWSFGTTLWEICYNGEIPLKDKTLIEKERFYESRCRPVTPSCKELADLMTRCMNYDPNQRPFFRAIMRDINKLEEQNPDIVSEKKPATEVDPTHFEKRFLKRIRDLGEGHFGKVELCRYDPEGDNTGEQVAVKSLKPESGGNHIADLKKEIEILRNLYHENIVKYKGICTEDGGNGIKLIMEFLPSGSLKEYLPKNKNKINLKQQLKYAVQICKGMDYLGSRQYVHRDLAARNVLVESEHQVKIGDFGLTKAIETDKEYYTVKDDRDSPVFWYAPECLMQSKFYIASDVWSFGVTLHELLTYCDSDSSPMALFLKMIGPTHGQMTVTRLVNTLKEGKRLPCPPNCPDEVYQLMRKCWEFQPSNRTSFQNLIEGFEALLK
Procedure, shortened: (§2)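 Protein at 2 μM was heated with 10 μM inhibitor in 10 mM HEPES pH 7.5, 500 mM NaCl containing SyproOrange (1:1000 dilution); thermal denaturation was followed by fluorescence in a real-time PCR instrument.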

[6] = target: CK2a2 (Homo sapiens, UniProt P19784); assay: Thermal stability shift assay; type: binding; settings: read-out: Tm shift CK2a2
Sequence of CK2a2 (P19784 whole entry): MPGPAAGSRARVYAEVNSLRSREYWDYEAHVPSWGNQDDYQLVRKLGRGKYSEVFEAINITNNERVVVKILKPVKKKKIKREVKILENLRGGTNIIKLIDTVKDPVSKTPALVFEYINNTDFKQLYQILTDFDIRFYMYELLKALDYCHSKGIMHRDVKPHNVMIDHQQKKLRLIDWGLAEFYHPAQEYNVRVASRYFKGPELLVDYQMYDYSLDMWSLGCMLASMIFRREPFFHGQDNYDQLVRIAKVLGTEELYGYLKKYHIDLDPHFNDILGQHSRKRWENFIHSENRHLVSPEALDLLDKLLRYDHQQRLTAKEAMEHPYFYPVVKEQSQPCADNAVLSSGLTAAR
Procedure, shortened: as §2

[7] = target: PKACa (Homo sapiens, UniProt P17612); assay: Thermal stability shift assay; type: binding; settings: read-out: Tm shift PKACa
Procedure, shortened: as §2

[8] = target: T3, DRAK2 (Homo sapiens, UniProt O94768); assay: Thermal stability shift assay; type: binding; settings: read-out: Tm shift DRAK2
T3 construct: purchased in-house (SGC Oxford thermal shift panel)
T3 sequence (O94768 1-372): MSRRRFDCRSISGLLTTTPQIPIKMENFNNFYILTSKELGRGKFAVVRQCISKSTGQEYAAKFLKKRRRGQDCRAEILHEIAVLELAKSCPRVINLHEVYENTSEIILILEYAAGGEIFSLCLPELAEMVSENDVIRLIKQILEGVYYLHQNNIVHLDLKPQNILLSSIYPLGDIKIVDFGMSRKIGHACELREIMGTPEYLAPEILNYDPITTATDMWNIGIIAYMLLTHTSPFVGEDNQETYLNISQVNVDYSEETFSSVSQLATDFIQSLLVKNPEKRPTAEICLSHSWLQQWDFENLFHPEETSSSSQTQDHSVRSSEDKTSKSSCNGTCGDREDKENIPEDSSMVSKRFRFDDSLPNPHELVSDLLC
Procedure, shortened: as §2

[9] = target: PIM2 (Homo sapiens, UniProt Q9P1W9); assay: Thermal stability shift assay; type: binding; settings: read-out: Tm shift PIM2
Sequence of PIM2 (Q9P1W9 whole entry): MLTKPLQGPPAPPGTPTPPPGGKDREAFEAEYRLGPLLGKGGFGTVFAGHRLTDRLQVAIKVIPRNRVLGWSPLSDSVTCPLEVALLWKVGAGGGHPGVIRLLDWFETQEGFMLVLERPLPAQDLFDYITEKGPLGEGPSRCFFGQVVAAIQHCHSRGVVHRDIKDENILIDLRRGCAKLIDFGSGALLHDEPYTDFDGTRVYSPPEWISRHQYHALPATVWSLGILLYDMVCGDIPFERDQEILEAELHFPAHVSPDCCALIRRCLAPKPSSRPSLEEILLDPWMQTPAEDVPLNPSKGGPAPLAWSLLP
Procedure, shortened: as §2

[10] = target: T4, JNK2 (Homo sapiens, UniProt P45984); assay: Thermal stability shift assay; type: binding; settings: read-out: Tm shift JNK2
T4 construct: purchased in-house (SGC Oxford thermal shift panel)
Procedure, shortened: as §2

[11] = target: YSK1 (Homo sapiens, UniProt O00506); assay: Thermal stability shift assay; type: binding; settings: read-out: Tm shift YSK1
Procedure, shortened: as §2

[12] = target: T5, CLK3 (Homo sapiens, UniProt P49761); assay: Thermal stability shift assay; type: binding; settings: inhibitor 10 μM; read-out: Tm shift CLK3
T5 construct: purchased in-house (SGC Oxford thermal shift panel)
T5 sequence (P49761 whole entry): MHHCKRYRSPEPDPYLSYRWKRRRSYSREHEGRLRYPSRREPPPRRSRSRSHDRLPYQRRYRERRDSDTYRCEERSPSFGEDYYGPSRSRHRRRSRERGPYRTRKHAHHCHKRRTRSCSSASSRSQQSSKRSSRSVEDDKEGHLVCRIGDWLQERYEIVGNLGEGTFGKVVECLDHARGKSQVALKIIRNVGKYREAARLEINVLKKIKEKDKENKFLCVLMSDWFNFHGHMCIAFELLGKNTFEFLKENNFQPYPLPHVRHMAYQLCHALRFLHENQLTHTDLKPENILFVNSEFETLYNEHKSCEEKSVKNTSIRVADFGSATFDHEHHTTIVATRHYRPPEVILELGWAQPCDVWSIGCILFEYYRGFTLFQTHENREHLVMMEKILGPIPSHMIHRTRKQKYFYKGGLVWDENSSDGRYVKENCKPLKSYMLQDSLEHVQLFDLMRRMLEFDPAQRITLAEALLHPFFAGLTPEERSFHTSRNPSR
Description: as §1

[13] = target: CK1e (Homo sapiens, UniProt P49674); assay: Thermal stability shift assay; type: binding; settings: inhibitor 10 μM; read-out: Tm shift CK1e
Description: as §1

[14] = target: T6, DYRK1A (Homo sapiens, UniProt Q13627); assay: Thermal stability shift assay; type: binding; settings: inhibitor 10 μM; read-out: Tm shift DYRK1A
T6 construct: purchased in-house (SGC Oxford thermal shift panel)
Description: as §1

[15] = target: T7, CLK4 (Homo sapiens, UniProt Q9HAZ1); assay: Thermal stability shift assay; type: binding; settings: inhibitor 10 μM; read-out: Tm shift CLK4
T7 construct: purchased in-house (SGC Oxford thermal shift panel)
T7 sequence (Q9HAZ1 whole entry): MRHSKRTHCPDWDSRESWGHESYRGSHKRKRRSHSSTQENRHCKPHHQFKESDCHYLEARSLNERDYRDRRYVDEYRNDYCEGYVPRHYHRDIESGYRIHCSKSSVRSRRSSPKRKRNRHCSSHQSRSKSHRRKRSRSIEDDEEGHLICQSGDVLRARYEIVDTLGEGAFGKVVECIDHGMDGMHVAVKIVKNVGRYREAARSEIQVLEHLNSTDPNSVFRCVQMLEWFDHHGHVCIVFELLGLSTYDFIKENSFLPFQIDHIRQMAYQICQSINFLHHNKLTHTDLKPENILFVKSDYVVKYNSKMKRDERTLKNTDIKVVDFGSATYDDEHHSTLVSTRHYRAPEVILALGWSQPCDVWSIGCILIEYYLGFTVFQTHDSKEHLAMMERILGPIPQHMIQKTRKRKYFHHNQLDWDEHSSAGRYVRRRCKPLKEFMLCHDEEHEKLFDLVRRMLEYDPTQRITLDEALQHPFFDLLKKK
Description: as §1

[16] = target: T8, CLK1 (Homo sapiens, UniProt P49759); assay: Thermal stability shift assay; type: binding; settings: inhibitor 10 μM; read-out: Tm shift CLK1
T8 construct: the kinase domains of human CLK1 (residues: 148–484 (C terminus)); hexahistidine tag (TEV-cleavable) (cleaved yes); made in house; host or cells: E. coli BL21(DE3)
T8 sequence (P49759 148-484): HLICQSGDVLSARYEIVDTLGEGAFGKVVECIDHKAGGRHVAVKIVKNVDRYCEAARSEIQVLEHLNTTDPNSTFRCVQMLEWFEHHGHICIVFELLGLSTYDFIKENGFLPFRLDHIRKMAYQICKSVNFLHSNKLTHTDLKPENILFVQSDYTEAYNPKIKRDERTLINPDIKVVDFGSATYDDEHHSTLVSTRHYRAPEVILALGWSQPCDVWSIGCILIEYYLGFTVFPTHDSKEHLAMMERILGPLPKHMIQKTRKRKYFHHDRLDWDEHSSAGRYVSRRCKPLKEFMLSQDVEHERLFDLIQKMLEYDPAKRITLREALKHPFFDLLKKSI
Description: as §1

[17] = target: CLK2 (Homo sapiens, UniProt P49760); assay: Thermal stability shift assay; type: binding; settings: inhibitor 10 μM; read-out: Tm shift CLK2
Sequence of CLK2 (P49760 whole entry): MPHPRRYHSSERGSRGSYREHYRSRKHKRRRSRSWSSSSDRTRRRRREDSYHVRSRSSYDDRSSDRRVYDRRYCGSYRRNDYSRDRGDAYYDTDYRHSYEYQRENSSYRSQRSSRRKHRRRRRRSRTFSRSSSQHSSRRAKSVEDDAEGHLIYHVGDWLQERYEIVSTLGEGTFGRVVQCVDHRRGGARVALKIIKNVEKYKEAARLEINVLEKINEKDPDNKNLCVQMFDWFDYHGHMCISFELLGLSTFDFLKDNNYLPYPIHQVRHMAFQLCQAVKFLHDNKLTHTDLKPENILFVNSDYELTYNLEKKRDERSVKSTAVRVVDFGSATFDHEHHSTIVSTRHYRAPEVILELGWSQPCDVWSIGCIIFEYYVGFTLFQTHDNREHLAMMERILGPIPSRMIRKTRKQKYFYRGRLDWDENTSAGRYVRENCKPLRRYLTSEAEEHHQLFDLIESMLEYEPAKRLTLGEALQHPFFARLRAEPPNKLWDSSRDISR
Description: as §1

[18] = target: T9, DYRK2 (Homo sapiens, UniProt Q92630); assay: Thermal stability shift assay; type: binding; settings: inhibitor 10 μM; read-out: Tm shift DYRK2
T9 construct: purchased in-house (SGC Oxford thermal shift panel)
T9 sequence (Q92630 1-601): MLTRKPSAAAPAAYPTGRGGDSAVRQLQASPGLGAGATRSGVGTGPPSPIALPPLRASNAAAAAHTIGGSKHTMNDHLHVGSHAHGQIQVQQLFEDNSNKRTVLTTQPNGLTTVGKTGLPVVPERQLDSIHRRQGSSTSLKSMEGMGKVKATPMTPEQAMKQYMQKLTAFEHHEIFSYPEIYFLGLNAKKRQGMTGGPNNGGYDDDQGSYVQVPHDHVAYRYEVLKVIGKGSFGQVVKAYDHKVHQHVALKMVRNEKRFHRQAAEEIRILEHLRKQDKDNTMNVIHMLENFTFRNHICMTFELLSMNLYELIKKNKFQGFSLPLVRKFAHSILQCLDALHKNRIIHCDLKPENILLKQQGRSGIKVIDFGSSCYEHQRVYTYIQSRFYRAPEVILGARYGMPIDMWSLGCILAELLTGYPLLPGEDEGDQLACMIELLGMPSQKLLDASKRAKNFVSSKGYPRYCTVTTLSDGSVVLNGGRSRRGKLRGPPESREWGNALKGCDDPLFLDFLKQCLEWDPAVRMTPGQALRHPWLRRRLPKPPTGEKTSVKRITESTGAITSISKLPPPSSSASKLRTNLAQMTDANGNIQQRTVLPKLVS
Description: as §1

[19] = test system: panel of 106 kinases / 129 human protein kinases; assay: Thermal shift assay, kinase panel; type: binding; settings: inhibitor 10 μM
Description: as §1, with “(Invitrogen). The assay and data evaluation were carried out as described ([Bullock et al., 2005])” for “(Invitrogen).”

[20] = test system: phosphorylated SR proteins in HMEC-1 cells; assay: SR protein phosphorylation, western blotting; type: cell-based, human; settings: TNF-α-stimulated HMEC-1, increasing inhibitor concentration
Description: Western blot analysis of samples from cell lysates of inhibited, stimulated, and unstimulated HMEC-1 cells were performed as previously described ([Szotowski et al., 2005]). For detection of phosphorylated SR proteins, monoclonal antibody mAb1H4 (Invitrogen GmbH, Karlsruhe, Germany) was used.

Sequence of PIM1 (P11309 whole entry): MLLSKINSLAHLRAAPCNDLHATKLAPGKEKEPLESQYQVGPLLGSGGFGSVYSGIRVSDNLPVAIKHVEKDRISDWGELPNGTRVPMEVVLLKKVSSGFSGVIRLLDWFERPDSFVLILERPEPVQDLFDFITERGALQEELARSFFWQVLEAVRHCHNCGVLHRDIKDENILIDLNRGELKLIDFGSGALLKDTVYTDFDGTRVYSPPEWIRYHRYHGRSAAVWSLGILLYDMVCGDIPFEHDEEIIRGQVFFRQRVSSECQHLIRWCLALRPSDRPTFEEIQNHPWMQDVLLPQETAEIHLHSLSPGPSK

ΔTm at 10 µM ([1]; inhibitor 10 μM) [°C] | ΔTm at 10 µM [12] [°C] | ΔTm at 10 µM [13] [°C] | ΔTm at 10 µM [14] [°C] | ΔTm at 10 µM [15] [°C] | ΔTm at 10 µM [16] [°C] | ΔTm at 10 µM ([2]; inhibitor 10 μM) [°C] | ΔTm at 10 µM [17] [°C] | ΔTm at 10 µM [18] [°C] | ΔTm at 10 µM ([4]; inhibitor 10 μM) [°C] | ΔTm at 10 µM ([5]; inhibitor 10 μM) [°C] | ΔTm at 10 µM ([6]; inhibitor 10 μM) [°C] | ΔTm at 10 µM ([7]; inhibitor 10 μM) [°C] | ΔTm at 10 µM ([8]; inhibitor 10 μM) [°C] | ΔTm at 10 µM ([9]; inhibitor 10 μM) [°C] | ΔTm at 10 µM ([10]; inhibitor 10 μM) [°C] | ΔTm at 10 µM ([11]; inhibitor 10 μM) [°C] | Structure (SMILES) | ΔTm at 10 µM [1] [°C] | ΔTm at 10 µM [2] [°C] | ΔTm at 10 µM [3] [°C] | also measured
 |  |  |  |  |  |  |  |  |  |  |  |  |  |  |  |  | CCOC(=O)c1c(C(C#N)=CN)c2ccc(Cl)c(Cl)c2n1C (mixture of isomers) [KH-CB20, (E/Z)-Ethyl 3-(2-Amino-1-Cyanovinyl)-6,7-Dichloro-1-Methyl-1H-Indole-2-Carboxylate] | 3 | 0.3 | 0.1 | ΔTm at 10 µM [4]: 0.2 °C; ΔTm at 10 µM [5]: 1 °C; ΔTm at 10 µM [6]: 1.3 °C; ΔTm at 10 µM [7]: 0.3 °C; ΔTm at 10 µM [8]: 1.5 °C; ΔTm at 10 µM [9]: 2.1 °C; ΔTm at 10 µM [10]: 0.5 °C; ΔTm at 10 µM [11]: 0.1 °C
2.5 | 1.7 | 0.3 | 0.6 | 4.1 | 5.6 | 0.5 | 3 | 0.7 | -0.1 | 0.2 | 0 | 0.2 | 0 | 0.8 | -0.2 | 0.6 | CCOC(=O)c1c(C(C#N)=CN(C)C)c2ccc(Cl)c(Cl)c2n1C (mixture of isomers) [compound 2, (E/Z)-Ethyl 6,7-Dichloro-3-[1-Cyano-2-(Dimethylamino)Vinyl]-1-Methyl-1H-Indole-2-Carboxylate] |  |  |  | ΔTm at 10 µM ([3]; inhibitor 10 μM): 0.1 °C; Interaction in thermal shift screen, panel of 106 kinases [19]: showed only interaction with CLK family members
 |  |  |  |  |  |  |  |  |  |  |  |  |  |  |  |  | CCOC(=O)c1c(/C(C#N)=C\N)c2ccc(Cl)c(Cl)c2n1C [KH-CB19, (E)-Ethyl 3-(2-Amino-1-Cyanovinyl)-6,7-Dichloro-1-Methyl-1H-Indole-2-Carboxylate] | 2.9 | 0.1 | -0.3 | ΔTm at 10 µM [4]: 0.2 °C; Dose response of SRp75 and SRp55 phosphorylation [20]: significantly reduced at increasing concentration of the inhibitor; ΔTm at 10 µM [5]: 0.7 °C; ΔTm at 10 µM [6]: 1.4 °C; ΔTm at 10 µM [7]: 0 °C; ΔTm at 10 µM [8]: 1.7 °C; ΔTm at 10 µM [9]: 2.1 °C; ΔTm at 10 µM [10]: -0.2 °C; ΔTm at 10 µM [11]: -0.1 °C
3.4 | 7.9 | 0.9 | 5.1 | 9.6 | 10.9 | 0 | 6.3 | 2.1 | 0.4 | 0.9 | 1.7 | 0.4 | 0.9 | 3 | -0.5 | 0.2 | Cn1c2c(Cl)c(Cl)ccc2c2c(C#N)c[nH]c(=O)c21 [compound 3, 7,8-Dichloro-9-Methyl-1-Oxo-2,9-Dihydro-1H-Pyrido[3,4-b]Indole-4-Carbonitrile] |  |  |  | ΔTm at 10 µM ([3]; inhibitor 10 μM): -0.5 °C; Interaction in thermal shift screen, panel of 106 kinases [19]: showed only interaction with CLK family members

Structure (SMILES) | ΔTm at 10 µM ([1]; inhibitor 10 μM) [°C] | ΔTm at 10 µM [12] [°C] | ΔTm at 10 µM [13] [°C] | ΔTm at 10 µM [14] [°C] | ΔTm at 10 µM [15] [°C] | ΔTm at 10 µM [16] [°C] | ΔTm at 10 µM ([2]; inhibitor 10 μM) [°C] | ΔTm at 10 µM [17] [°C] | ΔTm at 10 µM [18] [°C] | ΔTm at 10 µM ([4]; inhibitor 10 μM) [°C] | ΔTm at 10 µM ([5]; inhibitor 10 μM) [°C] | ΔTm at 10 µM ([6]; inhibitor 10 μM) [°C] | ΔTm at 10 µM ([7]; inhibitor 10 μM) [°C] | ΔTm at 10 µM ([8]; inhibitor 10 μM) [°C] | ΔTm at 10 µM ([9]; inhibitor 10 μM) [°C] | ΔTm at 10 µM ([10]; inhibitor 10 μM) [°C] | ΔTm at 10 µM ([11]; inhibitor 10 μM) [°C] | ΔTm at 10 µM [1] [°C] | ΔTm at 10 µM [2] [°C] | ΔTm at 10 µM [3] [°C] | also measured
NC1=NC(=O)/C(=C2\CCNC(=O)c3[nH]c(Br)cc32)N1 [Hymenialdisine, hymenialdisine, reference compound] | 0.6 | 7.2 | 4.8 | 4.4 | 7 | 7.8 | 3.5 | 4.4 | 0.8 | 1.5 | 0.3 | 1.2 | 0.8 | 13 | 3.5 | -0.1 | 1.7 |  |  |  | 
